The values below come from patent US20070276020A1, “Dicationic Compounds For Activity Against Trichomonas Vaginalis” (priority 2004, published 2007).

Where a name gives a salt, the structure may show the parent alone. Read-outs that look alike come from different tables or passages of the source.

For data set [1], the system named is T. vaginalis CDC reference strain 085 (metronidazole-resistant). The data set can be described thus: IC50 assay, tritiated thymidine incorporation, 48 h, metronidazole-resistant strain 085. The format is cell-based, Trichomonas vaginalis. As to the method: (§1) CDC reference strains 085 and 520 that are metronidazole resistant and sensitive, respectively, were maintained at 37° C. in Diamond's trypticase-yeast-maltose medium (TYM; pH 6.0). Metronidazole, tinidazole, pentamidine, and berenil were purchased from Sigma Chemical Co. (St. Louis, Mo., United States of America). Compound 1, see Das, B. P. and D. W. Boykin, J. Med. Chem., 20, 531-536 (1977); Compound 2, see Boykin, D. W., et al., Bioorganic and Med. Chem. Lett., 6:3017-3020 (1996); Compound 3 and Compound 4, see Boykin, D. W., et al., J. Med. Chem., 41, 124-129 (1998); Compound 6, see Francesconi, I., et al., J. Med. Chem., 42, 2260-2265 (1999); Compound 5, see Stephens, C., et al., J. Med. Chem., 44, 1741-1748 (2001); and Compound 9, see Mallena, S. et al., J. Am. Chem. Soc., 126, 13659-13669 (2004); were synthesized as previously reported. Purity was determined by NMR and TLC. The syntheses of 7 and 8 are outlined below. See also Crowell, A. L., et al., Antimicrob. Agents Chemother., 48, 3602-3605 (2004), which is incorporated herein by reference in its entirety.
(§2) Compounds were dissolved in dimethyl sulfoxide (DMSO, Sigma) and further diluted with Diamond's TYM media to reach assay concentrations. Two types of assays were performed on the cationic compounds being evaluated. An initial screen was performed using the standard MLC assay, see Crowell, A. L., et al., Antimicrob. Agents Chemother., 47, 1407-1409 (2003); Meingassner, J. G. and J. Thurner, Antimicrob. Agents Chemother., 15, 254-257 (1979), with a maximum concentration of 20 μM for the test compounds. After 48 h of incubation at 37° C., plates were examined using an inverted phase-contrast microscope. The lowest drug concentration at which no motile trichomonads were observed was recorded as the MLC. Each compound was tested at least twice under both aerobic and anaerobic conditions. Anaerobic conditions were generated using a GASPAK™ jar and CO2-generating GASPAK™ Plus anaerobic system envelopes (Becton Dickinson, Sparks, Md., United States of America) and monitored with GASPAK™ disposable anaerobic indicator strips (Becton Dickinson). […] To further evaluate the compounds' activity, a second type of assay was used to determine the concentration at which 50% of the parasite growth was inhibited (IC50). In these assays, 0.5 μCi of tritiated thymidine (Perkin-Elmer, Boston, Mass., United States of America) was added to each well of a standard assay at the initiation of culture. At 48 h of incubation under either aerobic or anaerobic conditions, cells were harvested onto glass fiber filters (Wallac, Turku, Finland) using a TOMTEC™ cell harvester (Hamden, Conn., United States of America). Incorporated thymidine was detected using BETAPLATE™ (Wallac) scintillation fluid and plate reader. The resulting counts per minute over the compound's concentration range were utilized to calculate IC50s using GRAPHPAD™ PRISM™ (GraphPad Software, Inc., San Diego, Calif., United States of America).
(Incorporation of labelled thymidine or its analogues reports DNA synthesis.)

For data set [2], the system named is T. vaginalis. Put plainly: In vitro assays against T. vaginalis, overall statement in words. The format is cell-based, Trichomonas vaginalis. As to the method: as §2
Data set [3] has as its system T. vaginalis CDC reference strain 520 (metronidazole-sensitive). Put plainly: IC50 assay, tritiated thymidine incorporation, 48 h, metronidazole-sensitive strain 520. The format is cell-based, Trichomonas vaginalis. The following applies: for IC50: Trichomonas vaginalis. As to the method: as §1, §2
The subject of data set [4] is trichomoniasis infections. The following applies: cited from earlier work.
The subject of data set [5] is different protozoal infection. The following applies: experimental model; cited from earlier work.
Where [6] appears, read: metronidazole-sensitive strain 520, aerobic, 48 h.
[7] abbreviates: metronidazole-sensitive strain 520, anaerobic, 48 h.
The mark [8] stands for this setting: Trichomonas vaginalis, 48 h, read-out: IC50 values (μM ± SEM) 085 aerobic.
Setting [9] is: Trichomonas vaginalis, 48 h, read-out: IC50 values (μM ± SEM) 085 anaerobic.
Where [10] appears, read: 48 h, read-out: IC50 values (μM ± SEM) 520 aerobic.
Where [11] appears, read: 48 h, read-out: IC50 values (μM ± SEM) 520 anaerobic.
The mark [12] stands for this setting: Trichomonas vaginalis, metronidazole-resistant strain 085, aerobic, 48 h, read-out: IC50 values (μM ± SEM) 085 aerobic.
Setting [13] is: Trichomonas vaginalis, metronidazole-resistant strain 085, anaerobic, 48 h, read-out: IC50 values (μM ± SEM) 085 anaerobic.
The mark [14] stands for this setting: metronidazole-sensitive strain 520, aerobic, 48 h, read-out: IC50 values (μM ± SEM) 520 aerobic.
Where [15] appears, read: metronidazole-sensitive strain 520, anaerobic, 48 h, read-out: IC50 values (μM ± SEM) 520 anaerobic.
Setting [16] is: metronidazole-resistant strain 085, aerobic, 48 h.
[17] abbreviates: metronidazole-resistant strain 085, anaerobic, 48 h.

As to “4,4′-Bis{2-[(4-amidino)benzimidazolyl]}biphenyl tetrahydrochloride [Compound 7]”, the “activity against metronidazole-resistant 085 strain” value in data set [1] is “has activity”. In addition, the IC50 (as a rule, the concentration at which inhibition is half-maximal) in data set [1] (metronidazole-resistant strain 085, aerobic, 48 h, read-out: IC50 values (μM ± SEM) 085 aerobic) is 7.79 ± 4.2 µM; in data set [1] (metronidazole-resistant strain 085, anaerobic, 48 h, read-out: IC50 values (μM ± SEM) 085 anaerobic), 25.3 ± 43.1 µM. The “effectiveness against T. vaginalis in vitro” value (“effectiveness … in vitro” below) in data set [2] was “effective anti-trichomonads”. Also, the “activity against metronidazole-sensitive 520 isolate” value in data set [3] is recorded as “not”. In data set [3] (setting [6]), the “IC50 values (μM ± SEM) 520 aerobic” value is recorded as “no effect”. Moreover, the “IC50 values (μM ± SEM) 520 anaerobic” value in data set [3] (setting [7]) is reported as “no effect”.
With `CC(C)NC(=N)c1ccc2nc(-c3ccc4oc(-c5nc6ccc(C(=N)NC(C)C)cc6[nH]5)cc4c3)[nH]c2c1` [Compound 8, 2,5-Bis{2-[5-(N-isopropylamidino)benzimidazoyl]}benzo[b]furan tetrahydrochloride], the IC50 stood at 7.27 ± 3.76 µM in data set [1] (setting [8]), 37.6 ± 43.9 µM in data set [1] (setting [9]), 44.7 ± 9.33 µM in data set [3] (setting [10]) and 143 ± 127 µM in data set [3] (setting [11]). Moreover, the “effectiveness … in vitro” value in data set [2] is reported as “effective anti-trichomonads”.
For the compound `CC(C)NC(=N)c1ccc2nc(-c3ccc4oc(-c5nc6ccc(C(=N)NC(C)C)cc6[nH]5)cc4c3)[nH]c2c1` (as salt: hydrochloride) [Compound 8, 2,5-Bis{2-[5-(N-isopropylamidino)benzimidazoyl]}benzo[b]furan tetrahydrochloride], the melting point (usually the temperature of the solid-liquid transition) is 285 to 290 °C.
With `Cc1ncc([N+](=O)[O-])n1CCO` [Metronidazole, reference compound], the IC50 in data set [1] (setting [12]) turned out to be 303 ± 22.2 µM; in data set [1] (setting [13]) it was 12.3 ± 23.8 µM; in data set [3] (setting [14]) it was 18.2 ± 4.25 µM; in data set [3] (setting [15]) it was 1.89 ± 0.77 µM. The infections successfully treated in data set [4] is reported as 90-95%.
As to `N=C(N)c1ccc(-c2coc(-c3ccc(C(=N)N)cc3)c2)cc1` [Compound 6, 3,5-Bis(4-amidophenyl)furan], the “IC50 values (μM ± SEM) 085 aerobic” value in data set [1] (setting [16]) is recorded as “no effect”. Besides, the “IC50 values (μM ± SEM) 085 anaerobic” value in data set [1] (setting [17]) was “no effect”. For the same compound, the “effectiveness … in vitro” value in data set [2] is recorded as “not effective”. Also, the “IC50 values (μM ± SEM) 520 aerobic” value in data set [3] (setting [6]) is given as “no effect”. Also, the “IC50 values (μM ± SEM) 520 anaerobic” value in data set [3] (setting [7]) is “no effect”.
In the case of `CC(=O)NCC(=O)O.CC(=O)NCC(=O)O.N=C(N)c1ccc(N=NNc2ccc(C(=N)N)cc2)cc1` [Berenil, reference compound], the “IC50 values (μM ± SEM) 085 aerobic” value in data set [1] (setting [16]) is “no effect”. Further, the “IC50 values (μM ± SEM) 085 anaerobic” value in data set [1] (setting [17]) is given as “no effect”. In addition, the “effectiveness … in vitro” value in data set [2] is “not effective”. Moreover, in data set [3] (setting [6]), the “IC50 values (μM ± SEM) 520 aerobic” value is given as “no effect”. In addition, the “IC50 values (μM ± SEM) 520 anaerobic” value in data set [3] (setting [7]) is “no effect”.
Consider `N=C(N)c1ccc(-c2ccc(-c3nc4ccc(C(=N)N)cc4[nH]3)s2)cc1` [Compound 9, 2-(4-Amidinophenyl)-5-[2-(5-amidinobenzimidazoyl)]thiophene], for which the IC50 in data set [1] (setting [8]) was 0.27 ± 0.04 µM; in data set [1] (setting [9]), 0.5 ± 0.42 µM; in data set [1] (Trichomonas vaginalis, read-out: IC50 values), at most 1 µM; in data set [3] (setting [10]), 0.98 ± 0.19 µM; in data set [3] (setting [11]), 1.24 ± 0.39 µM; in data set [3] (read-out: IC50 values), at most 1 µM. Further, the “in vivo treatment of a different protozoal infection” value in data set [5] is recorded as “successfully used”. In addition, the “toxicity to the host” value in data set [5] is on record as “without overt evidence of toxicity”. For the same compound, the “effectiveness … in vitro” value in data set [2] is given as “most effective dication”.
For the compound `CCS(=O)(=O)CCn1c([N+](=O)[O-])cnc1C` [Tinidazole, reference compound], the IC50 in data set [1] (setting [12]) is 45.1 ± 5.38 µM; in data set [1] (setting [13]) it was 4.81 ± 1.17 µM; in data set [3] (setting [14]) it was 1.48 ± 0.12 µM; in data set [3] (setting [15]) it was 0.004 µM.
Take `CONC(=N)c1ccc(-c2ccc(-c3ccc(C(=N)NOC)cc3)o2)cc1` [Compound 2, 2,5-Bis[4-(O-methyloxyamidino)phenyl]furan]: the IC50 in data set [1] (setting [8]) stood at 39.1 ± 25.1 µM. Besides, the “IC50 values (μM ± SEM) 085 anaerobic” value in data set [1] (setting [17]) is “no effect”. In data set [2], the “effectiveness … in vitro” value was “generally ineffective”. Further, in data set [3] (setting [6]), the “IC50 values (μM ± SEM) 520 aerobic” value is “no effect”. Besides, the “IC50 values (μM ± SEM) 520 anaerobic” value in data set [3] (setting [7]) was “no effect”.
On to `CC(C)NC(=N)c1ccc(-c2ccc(-c3ccc(C(=N)NC(C)C)cc3)o2)cc1` [Compound 3, 2,5-Bis[4-(N-isopropylamidino)phenyl]furan], for which the IC50 in data set [1] (setting [8]) came to 6.44 ± 3.89 µM; in data set [1] (setting [9]) it was 9.41 ± 7.92 µM; in data set [3] (setting [10]), 6.6 ± 1.76 µM; in data set [3] (setting [11]), 3.91 ± 1.06 µM.
Consider `N=C(N)c1ccc(OCCCCCOc2ccc(C(=N)N)cc2)cc1` [Pentamidine, reference compound], for which the “IC50 values (μM ± SEM) 085 aerobic” value in data set [1] (setting [16]) is “no effect”. In data set [1] (setting [17]), the “IC50 values (μM ± SEM) 085 anaerobic” value is “no effect”. Besides, in data set [2], the “effectiveness … in vitro” value is recorded as “not effective”. Further, in data set [3] (setting [6]), the “IC50 values (μM ± SEM) 520 aerobic” value is given as “no effect”. In addition, in data set [3] (setting [7]), the “IC50 values (μM ± SEM) 520 anaerobic” value is “no effect”.
For `N=C(N)Nc1ccc(-c2ccc(-c3ccc(NC(=N)N)cc3)o2)cc1` [Compound 5, 2,5-Bis-(4-guanidinophenyl)furan], the “IC50 values (μM ± SEM) 085 aerobic” value in data set [1] (setting [16]) is on record as “no effect”. Further, the “IC50 values (μM ± SEM) 085 anaerobic” value in data set [1] (setting [17]) was “no effect”. The “effectiveness … in vitro” value in data set [2] is listed as “not effective”. Further, the “IC50 values (μM ± SEM) 520 aerobic” value in data set [3] (setting [6]) is “no effect”. Moreover, the “IC50 values (μM ± SEM) 520 anaerobic” value in data set [3] (setting [7]) was “no effect”.
Take `N=C(N)c1ccc(-c2ccc(-c3ccc(C(=N)N)cc3)o2)cc1` [Compound 1, 2,5-Bis(4-amidinophenyl)furan]: the IC50 in data set [1] (setting [8]) was found to be 8.12 ± 2.45 µM; in data set [1] (setting [9]) it was 18.6 ± 19.8 µM; in data set [3] (setting [10]) it was 18.6 ± 6.43 µM; in data set [3] (setting [11]), 57.9 ± 19.6 µM. In data set [1] (aerobic conditions), the “effectiveness versus metronidazole and tinidazole against resistant strain 085” value is “clearly more effective”. Besides, in data set [3], the “activity against metronidazole-sensitive 520 isolate” value was “good activity”.
Regarding `N=C(NC1CCCCC1)c1ccc(-c2ccc(-c3ccc(C(=N)NC4CCCCC4)cc3)o2)cc1` [Compound 4, 2,5-Bis[4-(N-cyclohexylamidino)phenyl]-furan], the concentration for half-maximal inhibition (IC50) in data set [1] (setting [8]) is 22.4 ± 13.7 µM; in data set [1] (setting [9]) it was 10.2 ± 8.47 µM; in data set [3] (setting [10]), 15.9 ± 0.74 µM; in data set [3] (setting [11]) it was 13.9 ± 3.74 µM.
